In US9067934B2, “Bicyclic pyridinones” (Pfizer Inc., priority 2011, dated 2015):
Counter-ions that a name gives are not always drawn.

Tested on: production of amyloid beta protein Aβ(1-42) (γ-secretase) in human WT-APP overexpressing CHO cells
Assay: Cell-Based γ-Secretase Assay with ELISA Readout
Conditions: human WT-APP overexpressing CHO cells, ~24 hours at 37° C., Aβ(1-42) ELISA; footnotes: a = geometric mean of >15 determinations, b = single determination, c = geometric mean of 7-15 determinations; read-out: Aβ 42B IC50 (Geometric Mean of 2-6 Determinations)
How it was run: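 Human WT-APP-overexpressing CHO cells were pre-cultured 24 h at 37° C, then exposed to compounds (eleven-point half-log series, 1% final DMSO) for ~24 h. Aβ(1-42) in conditioned media was captured with Aβ(1-42)-specific antibody and detected with Eu-labeled 6e10 by DELFIA TRF. IC50 by nonlinear regression against min/max inhibition controls.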

Row | Structure (SMILES) | IC50
1 | Cc1cn(-c2ccc3n(c2=O)CCN(CCOc2cccc(-n4ccc(C(F)(F)F)n4)c2)C3=O)cn1 [Example 81, 7-(4-methyl-1H-imidazol-1-yl)-2-(2-{3-[3-(trifluoromethyl)-1H-pyrazol-1-yl]phenoxy}ethyl)-3,4-dihydro-2H-pyrido[1,2-a]pyrazine-1,6-dione, trifluoroacetate salt] | 0.384 µM
2 | Cc1cn(-c2ccc3n(c2=O)CCN(CCOc2ccc(F)cc2C2CC2)C3=O)cn1 [Example 21, 2-[2-(2-cyclopropyl-4-fluorophenoxy)ethyl]-7-(4-methyl-1H-imidazol-1-yl)-3,4-dihydro-2H-pyrido[1,2-a]pyrazine-1,6-dione] | 0.262 µM
3 | Cc1cn(-c2ccc3n(c2=O)CCN(CCOc2cc(C(F)(F)F)nn2-c2ccc(F)cc2C)C3=O)cn1 [Example 56, 2-(2-{[1-(4-fluoro-2-methylphenyl)-3-(trifluoromethyl)-1H-pyrazol-5-yl]oxy}ethyl)-7-(4-methyl-1H-imidazol-1-yl)-3,4-dihydro-2H-pyrido[1,2-a]pyrazine-1,6-dione] | 0.399 µM
4 | Cc1cn(-c2ccc3n(c2=O)CCN(CCOc2ccnc4cc(C(F)(F)F)c(Cl)cc24)C3=O)cn1 [Example 47, 2-(2-{[6-chloro-7-(trifluoromethyl)quinolin-4-yl]oxy}ethyl)-7-(4-methyl-1H-imidazol-1-yl)-3,4-dihydro-2H-pyrido[1,2-a]pyrazine-1,6-dione] | 0.00948 µM
5 | Cc1cn(-c2ccc3n(c2=O)CCN(CCOc2ccccc2-c2cc4ccccc4o2)C3=O)cn1 [Example 92, 2-{2-[2-(1-benzofuran-2-yl)phenoxy]ethyl}-7-(4-methyl-1H-imidazol-1-yl)-3,4-dihydro-2H-pyrido[1,2-a]pyrazine-1,6-dione, formate salt] | 0.00487 µM
6 | Cc1cn(-c2ccc3n(c2=O)CCN([C@@H](C)COc2ccc(Cl)cc2S(F)(F)(F)(F)F)C3=O)cn1 [Example 119, 2-{(2S)-1-[4-Chloro-2-(pentafluoro-λ^6-sulfanyl)phenoxy]propan-2-yl}-7-(4-methyl-1H-imidazol-1-yl)-3,4-dihydro-2H-pyrido[1,2-a]pyrazine-1,6-dione] | 0.00749 µM
7 | Cc1cn(-c2ccc3n(c2=O)CCCN(CCOc2ccc(Cl)cc2C(F)(F)F)C3=O)cn1 [Example 111, 2-{2-[4-chloro-2-(trifluoromethyl)phenoxy]ethyl}-8-(4-methyl-1H-imidazol-1-yl)-2,3,4,5-tetrahydropyrido[1,2-a][1,4]diazepine-1,7-dione] | 0.138 µM
8 | Cc1cn(-c2ccc3n(c2=O)CCN(CCOc2cccc(Oc4ccccc4)c2)C3=O)cn1 [Example 19, 7-(4-methyl-1H-imidazol-1-yl)-2-[2-(3-phenoxyphenoxy)ethyl]-3,4-dihydro-2H-pyrido[1,2-a]pyrazine-1,6-dione] | 0.203 µM
9 | Cc1cn(-c2ccc3n(c2=O)CCN(CCOc2ccccc2C2CCC2)C3=O)cn1 [Example 25, 2-[2-(2-cyclobutylphenoxy)ethyl]-7-(4-methyl-1H-imidazol-1-yl)-3,4-dihydro-2H-pyrido[1,2-a]pyrazine-1,6-dione] | 0.0732 µM
10 | Cc1cn(-c2ccc3n(c2=O)CCN(CCOc2ccc(F)c4sc(C(F)(F)F)nc24)C3=O)cn1 [Example 80, 2-(2-{[7-fluoro-2-(trifluoromethyl)-1,3-benzothiazol-4-yl]oxy}ethyl)-7-(4-methyl-1H-imidazol-1-yl)-3,4-dihydro-2H-pyrido[1,2-a]pyrazine-1,6-dione] | 0.152 µM
11 | Cc1cn(-c2ccc3n(c2=O)CCN(CCOc2ccccc2-c2ccccc2)C3=O)cn1 [Example 34, 2-[2-(biphenyl-2-yloxy)ethyl]-7-(4-methyl-1H-imidazol-1-yl)-3,4-dihydro-2H-pyrido[1,2-a]pyrazine-1,6-dione, trifluoroacetate salt] | 0.262 µM
12 | Cc1cn(-c2ccc3n(c2=O)CCN(CCOc2cccc4sc5ccccc5c24)C3=O)cn1 [Example 79, 2-[2-(dibenzo[b,d]thien-1-yloxy)ethyl]-7-(4-methyl-1H-imidazol-1-yl)-3,4-dihydro-2H-pyrido[1,2-a]pyrazine-1,6-dione] | 0.00723 µM
13 | Cc1cn(-c2ccc3n(c2=O)CCN(CCOc2ccccc2-c2cc(C(F)F)no2)C3=O)cn1 [Example 58, 2-(2-{2-[3-(difluoromethyl)isoxazol-5-yl]phenoxy}ethyl)-7-(4-methyl-1H-imidazol-1-yl)-3,4-dihydro-2H-pyrido[1,2-a]pyrazine-1,6-dione, trifluoroacetate salt] | 0.0721 µM
14 | Cc1cn(-c2ccc3n(c2=O)CCN(CCOc2ccc(Cl)c(C(F)(F)F)c2)C3=O)cn1 [Example 12, 2-{2-[4-chloro-3-(trifluoromethyl)phenoxy]ethyl}-7-(4-methyl-1H-imidazol-1-yl)-3,4-dihydro-2H-pyrido[1,2-a]pyrazine-1,6-dione] | 0.196 µM
15 | COc1ccc2c(OCCN3CCn4c(ccc(-n5cnc(C)c5)c4=O)C3=O)cccc2c1 [Example 78, 2-{2-[(6-methoxy-1-naphthyl)oxy]ethyl}-7-(4-methyl-1H-imidazol-1-yl)-3,4-dihydro-2H-pyrido[1,2-a]pyrazine-1,6-dione] | 0.0875 µM
16 | Cc1cn(-c2ccc3n(c2=O)CCN(CCOc2cccc4cc(F)ccc24)C3=O)cn1 [Example 53, 2-{2-[(6-fluoro-1-naphthyl)oxy]ethyl}-7-(4-methyl-1H-imidazol-1-yl)-3,4-dihydro-2H-pyrido[1,2-a]pyrazine-1,6-dione, trifluoroacetate salt] | 0.0262 µM
17 | COc1ccc2c(OCCN3CCn4c(ccc(-n5cnc(C)c5)c4=O)C3=O)cccc2c1F [Example 64, 2-{2-[(5-fluoro-6-methoxy-1-naphthyl)oxy]ethyl}-7-(4-methyl-1H-imidazol-1-yl)-3,4-dihydro-2H-pyrido[1,2-a]pyrazine-1,6-dione, trifluoroacetate salt] | 0.0424 µM
18 | Cc1cn(-c2ccc3n(c2=O)CCN(CCOc2cc(C(F)(F)F)nc4c(C)ccc(Cl)c24)C3=O)cn1 [Example 51, 2-(2-{[5-chloro-8-methyl-2-(trifluoromethyl)quinolin-4-yl]oxy}ethyl)-7-(4-methyl-1H-imidazol-1-yl)-3,4-dihydro-2H-pyrido[1,2-a]pyrazine-1,6-dione] | 0.02 µM
19 | Cc1cn(-c2ccc3n(c2=O)CCN(CCOc2ncc(Cl)c4ccc(F)cc24)C3=O)cn1 [Example 99, 2-{2-[(4-chloro-7-fluoroisoquinolin-1-yl)oxy]ethyl}-7-(4-methyl-1H-imidazol-1-yl)-3,4-dihydro-2H-pyrido[1,2-a]pyrazine-1,6-dione, trifluoroacetate salt] | 0.0253 µM
20 | Cc1cn(-c2ccc3n(c2=O)CCN(CCOc2ncc(Cl)c4ccccc24)C3=O)cn1 [Example 68, 2-{2-[(4-chloroisoquinolin-1-yl)oxy]ethyl}-7-(4-methyl-1H-imidazol-1-yl)-3,4-dihydro-2H-pyrido[1,2-a]pyrazine-1,6-dione, trifluoroacetate salt] | 0.0594 µM
21 | Cc1cn(-c2ccc3n(c2=O)CCN(CC(C)Oc2ccc(C(F)(F)F)cc2)C3=O)cn1 (centres unmarked) [Example 5, 7-(4-methyl-1H-imidazol-1-yl)-2-{2-[4-(trifluoromethyl)phenoxy]propyl}-3,4-dihydro-2H-pyrido[1,2-a]pyrazine-1,6-dione] | 0.996 µM
22 | Cc1cn(-c2ccc3n(c2=O)CCN(CCOc2ccccc2-c2nc(C(F)(F)F)ns2)C3=O)cn1 [Example 104, 7-(4-methyl-1H-imidazol-1-yl)-2-(2-{2-[3-(trifluoromethyl)-1,2,4-thiadiazol-5-yl]phenoxy}ethyl)-3,4-dihydro-2H-pyrido[1,2-a]pyrazine-1,6-dione] | 0.0072 µM
23 | Cc1cn(-c2ccc3n(c2=O)CCN(CCOc2ccc(F)cc2C(C)(C)C(F)(F)F)C3=O)cn1 [Example 105, 2-{2-[4-fluoro-2-(1,1,1-trifluoro-2-methylpropan-2-yl)phenoxy]ethyl}-7-(4-methyl-1H-imidazol-1-yl)-3,4-dihydro-2H-pyrido[1,2-a]pyrazine-1,6-dione] | 0.0252 µM
24 | Cc1cn(-c2ccc3n(c2=O)CCN(CCOc2cccc4c2CCCC4)C3=O)cn1 [Example 14, 7-(4-methyl-1H-imidazol-1-yl)-2-[2-(5,6,7,8-tetrahydronaphthalen-1-yloxy)ethyl]-3,4-dihydro-2H-pyrido[1,2-a]pyrazine-1,6-dione] | 0.197 µM
25 | Cc1cn(-c2ccc3n(c2=O)CCN(CCOc2ccnc4cc(C(F)(F)F)ccc24)C3=O)cn1 [Example 61, 7-(4-methyl-1H-imidazol-1-yl)-2-(2-{[7-(trifluoromethyl)quinolin-4-yl]oxy}ethyl)-3,4-dihydro-2H-pyrido[1,2-a]pyrazine-1,6-dione] | 0.108 µM
26 | Cc1cn(-c2ccc3n(c2=O)CCN(CCOc2ccccc2-c2ccc(C#N)cc2)C3=O)cn1 [Example 90, 2′-{2-[7-(4-methyl-1H-imidazol-1-yl)-1,6-dioxo-1,3,4,6-tetrahydro-2H-pyrido[1,2-a]pyrazin-2-yl]ethoxy}biphenyl-4-carbonitrile, formate salt] | 0.147 µM
27 | COc1ccc2cccc(OCCN3CCn4c(ccc(-n5cnc(C)c5)c4=O)C3=O)c2c1 [Example 7, 2-{2-[(7-methoxy-1-naphthyl)oxy]ethyl}-7-(4-methyl-1H-imidazol-1-yl)-3,4-dihydro-2H-pyrido[1,2-a]pyrazine-1,6-dione] | 0.042 µM
28 | Cc1cn(-c2ccc3n(c2=O)CCN(CCOc2cccc4ccc(F)cc24)C3=O)cn1 [Example 83, 2-{2-[(7-fluoronaphthalen-1-yl)oxy]ethyl}-7-(4-methyl-1H-imidazol-1-yl)-3,4-dihydro-2H-pyrido[1,2-a]pyrazine-1,6-dione] | 0.0123 µM
29 | Cc1cn(-c2ccc3n(c2=O)CCN(CCOc2ccc(F)c4oc5ccccc5c24)C3=O)cn1 [Example 87, 2-{2-[(4-fluorodibenzo[b,d]furan-1-yl)oxy]ethyl}-7-(4-methyl-1H-imidazol-1-yl)-3,4-dihydro-2H-pyrido[1,2-a]pyrazine-1,6-dione] | 0.0228 µM
